Consider 12 compounds from patent US12448383B2, “Compounds and methods for treatment of viral infections” (priority 2022, dated 2025).

Structures are written as SMILES.

Data set [1] deals with SARS Coronavirus 2 recombinant with NanoLuc (SARS-CoV2-NLuc) in A549-hACE2 cells. The data set can be described thus: organism not typed. The format is cell-based. To be noted: 48 h; read-out: SARS-CoV2 EC50.
The nature of data set [2]: GI S9 stability - no PMSF. Conditions: pH 7.4; human intestinal S9, PMSF-free; read-out: GIS9-HUMAN-NoPMSF T1/2. Type of data set: in vitro ADME. The essentials:
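Stability was assessed by Q-Exactive LC-MS peak area ratios against internal standard, tracking loss of parent and appearance of nucleoside metabolite Reference Compound A. Incubations used 2 μM compound in 1 mg/mL intestinal S9 without PMSF (PBS, pH 7.4), with six samples taken over 120 min.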

The test system of data set [3] is Respiratory syncytial virus recombinant with luciferase (RSV-Luc5) in HEp-2 cells. The data set can be described thus: microbe, parasite or virus in culture. The format is cell-based. To be noted: human respiratory syncytial virus, HEp-2, 72 h, read-out: RSV Hep2 EC50.
A further data set in a line: Plasma stability. Type of data set: in vitro ADME. Further details: unit not given here. To be noted: 37° C., 2 μM substrate. A digest of the protocol: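 LC-MS (Q-Exactive, 5 ppm tolerance, 0.1% formic acid water/acetonitrile gradient) quantified compound in quenched aliquots. Aliquots were taken at 0.05, 0.5, 1, 2, 3 and 4 hr and quenched with internal-standard solution, and supernatants were diluted with water after centrifugation.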

A short description of data set [4]: CC50 MT4 cytotoxicity (Cell-Titer Glo). Type of data set: cell-based. To be noted: human. The essentials:
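CC50 values are the concentrations cutting viability by 50%, fitted by non-linear regression against untreated (100%) and 2 μM puromycin (0%) controls. Cell-Titer Glo luminescence measured after 4-5 days at 37° C exposure of uninfected MT-4 and HEp-2 cells to 3-fold dilutions spanning 15 nM to 100,000 nM.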

In data set [5] the test system is Respiratory syncytial virus recombinant with luciferase (RSV-Luc5) in Normal Human Bronchial Epithelial (NHBE) cells. The data set can be described thus: microbe, parasite or virus in culture. The format is cell-based. Conditions: 72 h, read-out: RSV NHBE EC50.
In data set [6] the test system is Caco-2 cells (clone C2BBe1). Description: CACO-2 permeability. To be noted: for DM Caco2 A to B: apical to basolateral, donor pH 6.5, receiver pH 7.4; for DM Caco2 B to A: basolateral to apical. Type of data set: in vitro ADME. More on the design: unit not given here. The essentials:
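A-to-B and B-to-A flux measured by LC-MS/MS from receiver samples taken at 1 and 2 h, with donor sampled at 0 and 2 h and recovery checked. Buffers: pH 6.5 HBSS with 200 μM BNPP on the donor side, pH 7.4 with BSA on the receiver side. Monolayers were 21-day cultures, TEER-verified, in duplicate wells.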
A general note: Passage across Caco-2 layers is used to estimate intestinal permeability.

Take `N#C[C@@]1(c2ccc3c(N)ncnn23)O[C@H](COC(=O)OC2CC3(CCC3)C2)[C@@H](O)[C@H]1O` [Compound 29, ((2R,3S,4R,5R)-5-(4-aminopyrrolo[2,1-f][1,2,4]triazin-7-yl)-5-cyano-3,4-dihydroxytetrahydrofuran-2-yl)methyl spiro[3.3]heptan-2-yl carbonate]: the EC50 (commonly the concentration needed to bring the measured effect to its halfway point) stood at 835 nM in data set [1], 109 nM in data set [3] and 1300 nM in data set [5]. In data set [2], the half-life at 2 µM was determined as 37 s. In addition, the “STA Human Plasma 37” value in the data set “Plasma stability” worked out at 139. Moreover, the 50% cytotoxic concentration (CC50) (in general, the concentration at which the toxic effect on the cells reaches its halfway point) in data set [4] is more than 50000 nM. The “DM Caco2 A to B” value in data set [6] is on record as 1.91. Besides, the “DM Caco2 B to A” value in data set [6] was determined as 12.29.
As to `CC1(C)CC(OC(=O)OC[C@H]2O[C@@](C#N)(c3ccc4c(N)ncnn34)[C@H](O)[C@@H]2O)C1` [Compound 31, ((2R,3S,4R,5R)-5-(4-aminopyrrolo[2,1-f][1,2,4]triazin-7-yl)-5-cyano-3,4-dihydroxytetrahydrofuran-2-yl)methyl (3,3-dimethylcyclobutyl) carbonate], the EC50 is 1080 nM in data set [1], 322 nM in data set [3] and 803 nM in data set [5]. Also, the half-life at 2 µM in data set [2] was 51.4 s. Also, the “STA Human Plasma 37” value in “Plasma stability” is recorded as 32.4. In data set [4], this compound displayed a half-maximal cytotoxic concentration (CC50) of more than 50000 nM. Moreover, the “DM Caco2 A to B” value in data set [6] is reported as 0.68. Moreover, in data set [6], the “DM Caco2 B to A” value stood at 13.
As to `N#C[C@@]1(c2ccc3c(N)ncnn23)O[C@H](COC(=O)OC2CCCCC2)[C@@H](O)[C@H]1O` [Compound 35, ((2R,3S,4R,5R)-5-(4-aminopyrrolo[2,1-f][1,2,4]triazin-7-yl)-5-cyano-3,4-dihydroxytetrahydrofuran-2-yl)methyl cyclohexyl carbonate], the results for the concentration for a half-maximal effect (EC50) in data set [1], in data set [3] and in data set [5] were 1910 nM, 651 nM and 1010 nM, respectively. Besides, the half-life at 2 µM in data set [2] is 35.6 s. In addition, in the data set “Plasma stability”, the “STA Human Plasma 37” value is listed as 139.6. This compound gave a CC50 in data set [4] of more than 50000 nM. Also, the “DM Caco2 A to B” value in data set [6] is given as 0.95. In data set [6], the “DM Caco2 B to A” value was 10.64.
On to `N#C[C@@]1(c2ccc3c(N)ncnn23)O[C@H](COC(=O)OC2CCOCC2)[C@@H](O)[C@H]1O` [Compound 50, ((2R,3S,4R,5R)-5-(4-aminopyrrolo[2,1-f][1,2,4]triazin-7-yl)-5-cyano-3,4-dihydroxytetrahydrofuran-2-yl)methyl (tetrahydro-2H-pyran-4-yl) carbonate], for which the EC50 in data set [1] amounted to 20400 nM; in data set [3] it was 1920 nM; in data set [5] it was 1370 nM. The half-life at 2 µM in data set [2] is 914 s. For the same compound, the “STA Human Plasma 37” value in the data set “Plasma stability” amounted to 430.4. The compound also had a cytotoxic concentration (CC50) in data set [4] of more than 50000 nM. Also, the “DM Caco2 A to B” value in data set [6] is on record as 0.13. For the same compound, the “DM Caco2 B to A” value in data set [6] was 2.76.
Consider `N#C[C@@]1(c2ccc3c(N)ncnn23)O[C@H](COC(=O)OCC23CCC(CC2)C3)[C@@H](O)[C@H]1O` [Compound 52, ((2R,3S,4R,5R)-5-(4-aminopyrrolo[2,1-f][1,2,4]triazin-7-yl)-5-cyano-3,4-dihydroxytetrahydrofuran-2-yl)methyl (bicyclo[2.2.1]heptan-1-ylmethyl) carbonate], for which the 50% effective concentration (EC50) in data set [1] amounted to 574 nM; in data set [3], 100 nM; in data set [5], 919 nM. In addition, the half-life at 2 µM in data set [2] amounted to 39.3 s. The “STA Human Plasma 37” value in “Plasma stability” is on record as 85. The same compound came in with a half-maximal cytotoxic concentration (CC50) in data set [4] of 38800 nM. The “DM Caco2 A to B” value in data set [6] is reported as 6.95. In addition, the “DM Caco2 B to A” value in data set [6] is reported as 13.04.
As for `N#C[C@@]1(c2ccc3c(N)ncnn23)O[C@H](COC(=O)OCC2CCC2)[C@@H](O)[C@H]1O` [Compound 53, ((2R,3S,4R,5R)-5-(4-aminopyrrolo[2,1-f][1,2,4]triazin-7-yl)-5-cyano-3,4-dihydroxytetrahydrofuran-2-yl)methyl (cyclobutylmethyl) carbonate], the EC50 was 662 nM in data set [1], 98 nM in data set [3] and 833 nM in data set [5]. Besides, the half-life at 2 µM in data set [2] was found to be 38.2 s. Also, the “STA Human Plasma 37” value in the data set “Plasma stability” is reported as 13. Besides, in data set [4], the half-maximal cytotoxic concentration (CC50) is more than 50000 nM. The “DM Caco2 A to B” value in data set [6] amounted to 2.34. In addition, the “DM Caco2 B to A” value in data set [6] was found to be 10.58.
Regarding `CC1(OC(=O)OC[C@H]2O[C@@](C#N)(c3ccc4c(N)ncnn34)[C@H](O)[C@@H]2O)CCCC1` [Compound 56, ((2R,3S,4R,5R)-5-(4-aminopyrrolo[2,1-f][1,2,4]triazin-7-yl)-5-cyano-3,4-dihydroxytetrahydrofuran-2-yl)methyl (1-methylcyclopentyl) carbonate], the EC50 worked out at 2520 nM in data set [1], 1260 nM in data set [3] and 1210 nM in data set [5]. The half-life at 2 µM in data set [2] turned out to be 990 s. Besides, in “Plasma stability”, the “STA Human Plasma 37” value turned out to be 77.644. For the same compound, the cytotoxic concentration (CC50) in data set [4] is more than 50000 nM. In data set [6], the “DM Caco2 A to B” value was found to be 0.35. Moreover, the “DM Caco2 B to A” value in data set [6] is 1.83.
Turning to `CCC(C)(CC)OC(=O)OC[C@H]1O[C@@](C#N)(c2ccc3c(N)ncnn23)[C@H](O)[C@@H]1O` [Compound 69, ((2R,3S,4R,5R)-5-(4-aminopyrrolo[2,1-f][1,2,4]triazin-7-yl)-5-cyano-3,4-dihydroaytetrahydrofuran-2-yl)methyl (3-methylpentan-3-yl) carbonate], the EC50 was determined as 2830 nM in data set [1], 1050 nM in data set [3] and 988 nM in data set [5]. Further, the half-life at 2 µM in data set [2] stood at 2920 s. Also, the “STA Human Plasma 37” value in the data set “Plasma stability” is listed as 294.49. In data set [4], this compound returned a cytotoxic concentration (CC50) of more than 50000 nM. Besides, the “DM Caco2 A to B” value in data set [6] is 1. In data set [6], the “DM Caco2 B to A” value came out at 4.74.
Turning to `CCC(C)(C)OC(=O)OC[C@H]1O[C@@](C#N)(c2ccc3c(N)ncnn23)[C@H](O)[C@@H]1O` [Compound 70, ((2R,3S,4R,5R)-5-(4-aminopyrrolo[2,1-f][1,2,4]triazin-7-yl)-5-cyano-3,4-dihydroxytetrahydrofuran-2-yl)methyl tert-pentyl carbonate], the values for the EC50 in data set [1], in data set [3] and in data set [5] were 2810 nM, 1720 nM and 2180 nM, respectively. In data set [2], the half-life at 2 µM amounted to 4380 s. The “STA Human Plasma 37” value in “Plasma stability” worked out at 1399.3. The compound further had a 50% cytotoxic concentration (CC50) in data set [4] of more than 50000 nM. For the same compound, in data set [6], the “DM Caco2 A to B” value is 0.88. Further, the “DM Caco2 B to A” value in data set [6] amounted to 6.91.
In the case of `CC1(C)C2CCC1(C)C(OC(=O)OC[C@H]1O[C@@](C#N)(c3ccc4c(N)ncnn34)[C@H](O)[C@@H]1O)C2` (stereo partly drawn) [Compound 71, ((2R,3S,4R,5R)-5-(4-aminopyrrolo[2,1-f][1,2,4]triazin-7-yl)-5-cyano-3,4-dihydroxytetrahydrofuran-2-yl)methyl (1,7,7-trimethylbicyclo[2.2.1]heptan-2-yl) carbonate], the EC50 in data set [1] was 7820 nM; in data set [3], 3010 nM; in data set [5] it was 532 nM. In addition, the half-life at 2 µM in data set [2] is 1550 s. Besides, the “STA Human Plasma 37” value in the data set “Plasma stability” came to 1584. The same compound came in with a cytotoxic concentration (CC50) in data set [4] of 47800 nM. Further, in data set [6], the “DM Caco2 A to B” value came out at 4.02. For the same compound, in data set [6], the “DM Caco2 B to A” value is recorded as 13.65.
As to `N#C[C@@]1(c2ccc3c(N)ncnn23)O[C@H](COC(=O)OCC23CC(C2)C3)[C@@H](O)[C@H]1O` [Compound 72, ((2R,3S,4R,5R)-5-(4-aminopyrrolo[2,1-f][1,2,4]triazin-7-yl)-5-cyano-3,4-dihydroxytetrahydrofuran-2-yl)methyl (bicyclo[1.1.1]pentan-1-ylmethyl) carbonate], the EC50 in data set [1] was 1130 nM; in data set [3] it was 779 nM; in data set [5] it was 1820 nM. Moreover, the half-life at 2 µM in data set [2] is 37.4 s. Moreover, in the data set “Plasma stability”, the “STA Human Plasma 37” value is 31.1. This compound had a 50% cytotoxic concentration (CC50) in data set [4] of more than 50000 nM. In addition, in data set [6], the “DM Caco2 A to B” value is 2.52. In data set [6], the “DM Caco2 B to A” value is recorded as 10.69.
On to `N#C[C@@]1(c2ccc3c(N)ncnn23)O[C@H](COC(=O)OC2CC(F)(F)C2)[C@@H](O)[C@H]1O` [Compound 73, ((2R,3S,4R,5R)-5-(4-aminopyrrolo[2,1-f][1,2,4]triazin-7-yl)-5-cyano-3,4-dihydroxytetrahydrofuran-2-yl)methyl (3,3-difluorocyclobutyl) carbonate], for which the half-maximal effective concentration (EC50) in data set [1] amounted to 1900 nM; in data set [3] it was 206 nM; in data set [5], 1100 nM. Besides, in data set [2], the half-life at 2 µM was 35.3 s. The “STA Human Plasma 37” value in “Plasma stability” was 70. In data set [4], this compound returned a 50% cytotoxic concentration (CC50) of more than 50000 nM. Besides, the “DM Caco2 A to B” value in data set [6] is 0.48. The “DM Caco2 B to A” value in data set [6] is 4.69.
